The text below walks through data of patent publication US5545669A, “Anti-inflammatory compounds” (priority 1994, dated 1996).

SMILES strings stand for the structures. Some results are limits rather than exact numbers.

Common to all, as to format: cell-based
Assay [1] relates to PGE2 release by human monocytes. The assay can be described thus: Assay (f): stimulated eicosanoid release by human monocytes, Prostaglandin E2. To be noted: Monocyte, 0.25 h, A23187 1 μM, 15 min. The protocol: (§1) Human Monocyte Isolation. Leukocyte-rich leukopaks obtained from Biological Specialties (Lansdale, Pa.) were collected from male volunteers who were not taking antiinflammatory drugs. Leukopaks were centrifuged (90×g for 15 min) twice to remove the platelet-rich plasma. The cell pellet was washed by centrifugation and resuspended in HBSS without Ca^2+ or Mg^2+. Histopaque 1077 was layered under the cell suspension and centrifuged at 400×g for 30 min to obtain the buffy coat. The interfacial buffy coat, containing monocytes and lymphocytes, was removed and saved. The buffy coat was washed twice with HBSS Without Ca^2+ or Mg^2+ by centrifugation. The cell pellet (4-6×10^8 cells/30 mls) was resuspended in iso-osmotic media (RPMI-1640, 10% heat inactivated fetal bovine serum (FBS), 0.2 mM L-glutamine, 2.5 mM HEPES) and layered over an equal volume of 46% Percol mixture (10X PBS/Percol; 9.25/0.75) and 54% iso-osmotic media and centrifuged for 30 min at 1000×g (Marshall and Roshak, Biochem. Cell Biol. 71: 331-339, 1993). The monocyte population located at the interface of the Percoll gradient was removed and washed twice in HBSS without Ca^2+ or Mg^2+.
(§2) Measurement of Stimuli-Induced Eicosanoid Release Monocytes (5×10^6 /ml) were incubated as a suspension in serum-free RPMI-1640 medium containing the vehicle DMSO (<1%) or drug for 30 min at 27° C. after which vehicle or stimuli was added for the indicated time. The stimulating agent is solubilized in DMSO and appropriate vehicle controls were included in all experiments. The amount of stimuli was chosen from the linear portion of a concentration versus product curve usually representing 60-80% maximal stimulation over the indicated incubation time at 37° C. (A23187, 1 μM,(15 min). The reaction was terminated by reduction of pH through addition of citric acid and centrifugation (10 min, 400×g, 4° C.). Cell viability was monitored before and after experiments using trypan blue exclusion. The cell-free media was decanted and stored at -70° C. until analyzed. Prostaglandin E2 and LTC4 were directly measured in cell-free media using enzyme immunoassay (EIA) kits purchased from Caymen Chemical Co. (Ann Arbor, Mich.). Sample or standard dilutions were made with appropriate media and analyzed in triplicate. Results were obtained by extrapolation from a standard curve prepared in the media and expressed as pg or ng/ml of sample.

In assay [2] the test system is mouse bone marrow-derived mast cells. The assay is described as follows: Assay (e): arachidonate content of cellular phospholipids. To be noted: 24-48 hours in culture. As for the experimental part:
The following is the method for assessing the ability of a compound to alter arachidonate content of cellular phospholipids, which can be generalized for any desired cell. Specifically, mouse bone marrow-derived mast cells are removed from culture and provided with exogenous [^3 H]arachidonic acid for 30 minutes. The labeled arachidonic acid which had not been incorporated into the cells is then removed by washing the cells 2 times with an albumin-containing buffer. At that point, the cells are treated with various concentrations of CoA-IT inhibitors and then placed back in culture for 24-48 hours. The phospholipids are extracted by the method of Bligh and Dyer [Can. J. Biochem. Physiol. (1959) 37,911-917] and phospholipids separated by normal phase HPLC by the method of Chilton [Methods Enzymol. (1990)187, 157-166]. The radioactive and mole quantities of arachidonate in complex lipids are determined. At this point, cellular lipid extracts are treated with KOH (0.5M) to remove fatty acids from complex lipids (phospholipids) and the quantities of arachidonate in these extracts can then be determined by various methods, including gas chromatography and mass spectrometry (Chilton [Methods Enzymol. (1990)187, 157-166]).

In the next assay the test system is human neutrophils. The assay is described as follows: Assay (e): mobilization of labeled arachidonic acid into 1-ether phospholipids in intact cells. The following applies: non-stimulated human neutrophils, 2 hrs. As for the experimental part: Measurement of the effect of CoA-IT inhibitors on the transfer of [^3 H]arachidonate into 1-ether phospholipids in non-stimulated inflammatory cells can be accomplished by general application of the following specific method. Human neutrophils were isolated and resuspended (5×10^7 /ml) in Hanks Balanced Salt Solution (HBSS; Gibco). [5,6,8,9,11,12,14,15-^3 H]-Arachidonic acid (100 Ci/mmol; New England Nuclear) complexed to 200 μl HBSS containing 0.25 mg/ml HSA was added to the cell suspension (1 μCi/ml). The cells were incubated with gentle shaking at 37° C. for 5 min. The reaction was terminated by the addition of 40 ml ice-cold HBSS containing HSA (0.25 mg/ml). The cells were then removed from the supernatant fluid by centrifugation (225 g, 8 min). Unincorporated [^3 H]-arachidonic acid was completely removed by two more washes of HBSS containing 0.25 mg/mi HSA. The neutrophils were resuspended in fresh buffer, exposed to various concentrations of a CoA-IT inhibitor or its vehicle and incubated without stimulation for 2 hrs. […] The phospholipid subclasses were separated by TLC in benzene/hexane/ethyl ether (50:45:4, v/v), located by image analysis (Bioscan) and the amount of radioactivity in each class was determined by zonal scraping and liquid scintillation counting.

Assay [3] has as its system LTC4 release by human monocytes. The assay is described as follows: Assay (f): stimulated eicosanoid release by human monocytes, LTC4. To be noted: Monocyte, 0.25 h, A23187 1 μM, 15 min. As for the experimental part:
as §1, §2

For the molecule `O=C(O)c1ccccc1Oc1ccc(C(F)(F)F)cc1NS(=O)(=O)c1cc(C(F)(F)F)cc(C(F)(F)F)c1` [Example 1, 2-[2-[3,5-Bis(trifluoromethyl)phenylsulfonamido]-4-trifluoromethylphenoxy]benzoic acid], the IC50 in assay [1] was greater than 30000 nM; in assay [3] it was 300 nM. Further, in assay [2], the “decreasing the arachidonic content” value is listed as “positive activity”. Also, the “blocking the movement of arachidonic acid into 1-ether phospholipids” value in the assay with human neutrophils is recorded as “positive activity”.

The IC50 is the point on the concentration scale where inhibition reaches its midpoint.
